For 55 compounds, IC50 results are on record in patent US20240116933A1, “INDAZOLE AND PYRAZOLOPYRIDINE COMPOUNDS AS INHIBITORS OF NLRP3 INFLAMMASOME” (BioAge Labs, Inc., priority 2022, published 2024).

pIC50: −log10 of the molar value. Bounds are passed on as bounds.

In the assay the target is T1, NLRP3 inflammasome (Homo sapiens, UniProt Q96P20).
T1 construct: endogenous in cells; host or cells: THP-1 cells (PMA-differentiated, LPS-primed, nigericin-stimulated)
T1 sequence (Q96P20 whole entry): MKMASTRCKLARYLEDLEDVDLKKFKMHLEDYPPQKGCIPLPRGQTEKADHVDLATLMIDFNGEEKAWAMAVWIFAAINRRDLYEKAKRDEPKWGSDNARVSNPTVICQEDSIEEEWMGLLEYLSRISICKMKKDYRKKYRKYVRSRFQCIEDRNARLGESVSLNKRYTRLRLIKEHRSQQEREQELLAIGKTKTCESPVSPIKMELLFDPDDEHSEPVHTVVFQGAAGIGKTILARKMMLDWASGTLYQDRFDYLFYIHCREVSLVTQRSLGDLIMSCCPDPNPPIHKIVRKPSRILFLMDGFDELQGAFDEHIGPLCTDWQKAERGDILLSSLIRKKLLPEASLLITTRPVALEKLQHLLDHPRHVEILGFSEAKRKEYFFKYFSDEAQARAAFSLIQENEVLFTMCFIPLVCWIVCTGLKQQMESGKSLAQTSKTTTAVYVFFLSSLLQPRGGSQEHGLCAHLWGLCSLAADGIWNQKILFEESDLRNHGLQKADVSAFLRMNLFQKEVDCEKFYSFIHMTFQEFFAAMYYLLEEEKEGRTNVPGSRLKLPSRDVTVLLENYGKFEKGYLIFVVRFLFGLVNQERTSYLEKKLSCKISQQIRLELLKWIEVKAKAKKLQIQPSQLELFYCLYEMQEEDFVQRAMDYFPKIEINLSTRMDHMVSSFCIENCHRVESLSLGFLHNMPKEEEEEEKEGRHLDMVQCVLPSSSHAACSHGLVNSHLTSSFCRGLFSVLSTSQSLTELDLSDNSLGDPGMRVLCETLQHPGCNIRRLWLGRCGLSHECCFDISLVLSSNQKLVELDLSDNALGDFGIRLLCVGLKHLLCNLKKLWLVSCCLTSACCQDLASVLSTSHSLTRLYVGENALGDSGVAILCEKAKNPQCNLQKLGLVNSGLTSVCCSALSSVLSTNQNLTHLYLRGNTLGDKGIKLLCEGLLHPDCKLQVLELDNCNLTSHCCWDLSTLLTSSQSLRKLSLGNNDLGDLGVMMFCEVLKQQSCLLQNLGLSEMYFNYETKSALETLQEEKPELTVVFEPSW
As to the kind of experiment: THP-1 Cell-Based NLRP3 Activation Assay. The note with it: THP-1 cells, PMA, 100 ng/mL LPS 3 hrs, 30 min pre-incubation with test compound, 10 μM nigericin 1 hr. The protocol:
THP-1 cells are cultured in complete media (CM) until they reach logarithmic growth and achieve a viability >90%. CM is composed of RPMI-1640 (+Glutamax)/10% fetal bovine serum/55 μM β-mercaptoethanol/pen/strep. Cells are spun down and resuspended to 1,000,000 cells/mL in CM containing either 20 nM or 500 nM PMA. 150,000 cells […] are then added to each well of a 96-well TC plate and incubated for either 24 hr or 3 hr, respectively, in a standard cell culture incubator (37° C.; 5% CO2). After this incubation, the plate is tilted and media carefully removed. 200 μL of CM containing 100 ng/mL LPS is then added to the wells and the cells incubated an additional 3 hrs. The media is again removed and replaced with Opti-Mem medium containing pre-determined dilutions of test compounds in replicate wells. After a 30 min pre-incubation with test compound, 10 μM nigericin (final concentration) in Opti-Mem medium with the corresponding concentration of compound is added to the wells for an additional 1 hr. Positive control wells contain 10 μM nigericin in Opti-Mem in the absence of test compound, while negative control wells contain Opti-Mem only. […] Once supernatants are removed, the relative viability of adherent cells in the 96-well TC plate are determined using a CellTiter-Glo® luminescent cell viability assay (Promega).
One may read the pIC50 as the negative decadic logarithm of the IC50, by convention in mol/L. A low value points to a large IC50. Regarding `CCOc1cc(C(=O)N(C)Cc2cc(CO)cc3cn[nH]c23)ccc1-c1cccc(F)c1` [Compound 069], the pIC50 was over 6.00.

In the case of `CCOc1cc(C(=O)N(C)Cc2cnc(CO)c3cn[nH]c23)ccc1-c1nc(Cl)cs1` [Compound 157], the pIC50 is over 6.00.

In turn, `CCN(Cc1cnc(C)c2cn[nH]c12)C(=O)c1cc(F)c(-c2cccc(Cl)c2)c(OC2CC2)c1` [Compound 032] showed a pIC50 of over 6.00.

`CCOc1cc(C(=O)N(C)Cc2cnc(C(C)O)c3cn[nH]c23)cc(F)c1-c1cc(F)cs1` (stereo not shown) [Compound 081]: the pIC50 is over 6.00.

With `CCOc1cc(C(=O)NCc2cnc(CO)c3cn[nH]c23)ccc1-c1cccc(F)c1` [Compound 150], the pIC50 was over 6.00.

The compound `CN(Cc1cc(O)cc2cn[nH]c12)C(=O)c1cc(F)c(-c2ccccc2)c(OC2CC2)c1` [Compound 114] showed a pIC50 of over 6.00.

For `Cc1ncc(CN(C)C(=O)c2cc(F)c(-c3cccc(F)c3)c(OC3CC3)c2)c2[nH]ncc12` [Compound 038], the pIC50 was over 6.00.

For `CCN(Cc1cnc(CO)c2cn[nH]c12)C(=O)c1ccc(-c2cccc(F)c2)c(OC2CC2)c1` [Compound 100], the pIC50 is over 6.00.

In the case of `CN(Cc1cnc(CO)c2cn[nH]c12)C(=O)c1ccc(-c2cccc(F)c2)c(OC2COC2)c1` [Compound 151], the negative-log IC50 (pIC50) was over 5.00.

On to `CCOc1cc(C(=O)N(C)Cc2c(CO)ncc3cn[nH]c23)ccc1-c1cccc(F)c1` [Compound 039], for which the pIC50 was over 6.00.

As for `CN(Cc1cnc(CF)c2cn[nH]c12)C(=O)c1cc(F)c(-c2cc(F)cs2)c(OC2CC2)c1` [Compound 181], the pIC50 is over 6.00.

Compound `CCOc1cc(C(=O)N(C)Cc2c(C)nc(C)c3cn[nH]c23)ccc1-c1cccc(F)c1` [Compound 053] had a pIC50 of over 6.00.

`CCN(Cc1cnc(CO)c2cn[nH]c12)C(=O)c1cc(F)c(-c2cccc(Cl)c2)c(OC2CC2)c1` [Compound 092] had a pIC50 of over 6.00.

With `CCOc1cc(C(=O)N(C)[C@H](C)c2c(C)ncc3cn[nH]c23)ccc1-c1cccc(F)c1` [Compound 044], the pIC50 is over 4.30.

`CCOc1cc(C(=O)N(C)Cc2cnc(CO)c3cn[nH]c23)ccc1-c1ccc(Cl)s1` [Compound 164] showed a pIC50 of over 6.00.

`CCCOc1cc(C(=O)N(C)Cc2cnc(CO)c3cn[nH]c23)cc(F)c1-c1cccc(F)c1` [Compound 138]: the pIC50 was over 6.00.

As for `CN(Cc1cnc(CF)c2cn[nH]c12)C(=O)c1cc(F)c(-c2cccc(Cl)c2)c(OC2CC2)c1` [Compound 071], the negative logarithm of the IC50 (pIC50) was over 6.00.

With `CC(C)Oc1cc(C(=O)N(C)Cc2cnc(CO)c3cn[nH]c23)ccc1-c1cccc(Cl)c1` [Compound 143], the negative logarithm of the IC50 (pIC50) was over 6.00.

For the compound `CCOc1nc(C(=O)N(C)[C@H](C)c2cncc3cn[nH]c23)ccc1-c1cccc(F)c1` [Compound 057], the pIC50 was over 4.30.

Regarding `CCOc1cc(C(=O)N(C)Cc2cnc(CO)c3cn[nH]c23)cc(F)c1-c1ccsc1` [Compound 107], the negative-log IC50 (pIC50) is over 6.00.

Regarding `CCOc1cc(C(=O)N(C)[C@H](C)c2c(O)ccc3cn[nH]c23)ccc1-c1cccc(F)c1` (single isomer, unassigned) [Compound 184], the pIC50 was over 5.00.

As to `CCOc1cc(C(=O)N(C)Cc2c(O)ccc3cn[nH]c23)ccc1-c1cccc(F)c1` [Compound 036], the pIC50 was over 6.00.

`CCOc1cc(C(=O)N(CC)Cc2cnc(C(C)O)c3cn[nH]c23)cc(F)c1-c1cccc(F)c1` (stereo not shown) [Compound 174] gave a pIC50 of over 6.00.

Consider `CCOc1nc(C(=O)N(C)[C@H](C)c2cnc(C)c3cn[nH]c23)ccc1-c1cccc(F)c1` [Compound 124], for which the pIC50 was over 4.30.

`CN(Cc1cc(O)cc2cn[nH]c12)C(=O)c1cc(F)c(-c2cccc(F)c2)c(OC2CC2)c1` [Compound 099]: the pIC50 is over 6.00.

Regarding `CCOc1nc(C(=O)N(C)Cc2cnc(CF)c3cn[nH]c23)ccc1-c1cccc(C(F)(F)F)c1` [Compound 046], the pIC50 is over 6.00.

With `CCOc1nc(C(=O)N(C)[C@@H](C)c2cncc3cn[nH]c23)ccc1-c1cccc(F)c1` [Compound 056], the pIC50 was over 6.00.

`CCOc1cc(C(=O)N(CC)Cc2cnc(C(C)O)c3cn[nH]c23)ccc1-c1cccc(Cl)c1` (stereo not shown) [Compound 176]: the pIC50 is over 6.00.

Turning to `CCOc1cc(C(=O)N(C)Cc2c(C3CC3)ncc3cn[nH]c23)ccc1-c1cccc(F)c1` [Compound 011], the pIC50 is over 6.00.

With `CCOc1cc(C(=O)N(C)Cc2c(C(C)O)ncc3cn[nH]c23)ccc1-c1cccc(F)c1` (stereo not shown) [Compound 135], the pIC50 is over 6.00.

`CCOc1cc(C(=O)N(C)Cc2cnc(C)c3cn[nH]c23)ccc1-c1cc(C#N)cs1` [Compound 153] gave a pIC50 of over 5.00.

`CCOc1cc(C(=O)N(C)[C@H](C)c2cccc3cn[nH]c23)ccc1-c1cccc(F)c1` [Compound 058]: the pIC50 is over 4.30.

Compound `CCOc1cc(C(=O)N(C)Cc2cc(O)cc3cn[nH]c23)cc(F)c1-c1cccc(F)c1` [Compound 098] showed a pIC50 of over 6.00.

`CCOc1cc(C(=O)N(CC)Cc2cnc(C(C)O)c3cn[nH]c23)ccc1-c1cccc(F)c1` (stereo not shown) [Compound 067] gave a pIC50 of over 6.00.

On to `CN(Cc1cnc(CO)c2cn[nH]c12)C(=O)c1cc(F)c(-c2cccc(Cl)c2)c(OC2CC2)c1` [Compound 047], for which the pIC50 is over 6.00.

Compound `CC(C)Oc1cc(C(=O)N(C)Cc2cnc(C(C)O)c3cn[nH]c23)ccc1-c1cc(F)cc(F)c1` (stereo not shown) [Compound 146] had a pIC50 of over 6.00.

`Cc1ncc(CNC(=O)c2cc(F)c(-c3cccc(Cl)c3)c(OC3CC3)c2)c2[nH]ncc12` [Compound 122] showed a pIC50 of over 6.00.

`CN(Cc1cnc(CO)c2cn[nH]c12)C(=O)c1ccc(-c2cccs2)c(OC2CC2)c1` [Compound 085] gave a pIC50 of over 5.00.

As to `CCOc1cc(C(=O)N(C)Cc2cnc(CO)c3cn[nH]c23)cc(F)c1-c1cccs1` [Compound 106], the negative logarithm of the IC50 (pIC50) is over 6.00.

Take `CCOc1cc(C(=O)N(C)Cc2c(COC)ncc3cn[nH]c23)ccc1-c1cccc(F)c1` [Compound 077]: the pIC50 is over 6.00.

`CCOc1cc(C(=O)N(C)C(C)c2ccc(F)c3cn[nH]c23)ccc1-c1cccc(F)c1` (stereo not shown) [Compound 116]: the pIC50 was over 6.00.

Compound `CCOc1nc(C(=O)N(C)[C@@H](C)c2ccc(CF)c3cn[nH]c23)ccc1-c1cccc(F)c1` [Compound 074] gave a pIC50 of over 4.30.

With `CN(Cc1cnc(CO)c2cn[nH]c12)C(=O)c1ccc(-c2cccc(F)c2)c(OC2CCC2)c1` [Compound 137], the pIC50 is over 6.00.

`Cc1ncc([C@H](C)N(C)C(=O)c2cc(F)c(-c3cccc(F)c3)c(OC3CC3)c2)c2[nH]ncc12` [Compound 035]: the negative-log IC50 (pIC50) was over 6.00.

Take `CCOc1cc(C(=O)N(CC)Cc2cnc(C(C)O)c3cn[nH]c23)cc(F)c1-c1cccc(Cl)c1` (stereo not shown) [Compound 172]: the pIC50 is over 6.00.

Compound `CCOc1cc(C(=O)N(C)[C@H](C)c2cnc(CO)c3cn[nH]c23)ccc1-c1cccc(F)c1` [Compound 159] showed a pIC50 of over 6.00.

Take `CCOc1cc(C(=O)N(C)[C@@H](C)c2cnc(C)c3cn[nH]c23)ccc1-c1cccc(F)c1` [Compound 049]: the pIC50 is over 4.30.

Turning to `Cc1nc(C)c2cn[nH]c2c1CN(C)C(=O)c1cc(F)c(-c2cccc(F)c2)c(OC2CC2)c1` [Compound 119], the pIC50 was over 6.00.

Regarding `CCOc1cc(C(=O)N(C)Cc2cnc(C(C)O)c3cn[nH]c23)cc(F)c1-c1ccsc1` (stereo not shown) [Compound 088], the pIC50 was over 6.00.

For `CCOc1cc(C(=O)N(C)Cc2cccc3cn[nH]c23)sc1-c1cccc(F)c1` [Compound 121], the pIC50 is over 6.00.

As for `CN(Cc1c(CO)ncc2cn[nH]c12)C(=O)c1cc(F)c(-c2cccc(F)c2)c(OC2CC2)c1` [Compound 139], the pIC50 is over 6.00.

For `CN(Cc1cnc(CO)c2cn[nH]c12)C(=O)c1ccc(-c2cccc(Cl)c2)c(OC2CCC2)c1` [Compound 084], the negative logarithm of the IC50 (pIC50) was over 6.00.

The compound `CCOc1cc(C(=O)N(C)[C@H](C)c2cnc(C)c3cn[nH]c23)ccc1-c1cccc(F)c1` [Compound 050] showed a pIC50 of over 6.00.

`Cc1ncc2cn[nH]c2c1CN(C)C(=O)c1cc(F)c(-c2cccc(F)c2)c(OC2CC2)c1` [Compound 062] showed a pIC50 of over 6.00.

Regarding `CCN(Cc1cnc(CO)c2cn[nH]c12)C(=O)c1ccc(-c2cccc(C#N)c2)c(OC2CC2)c1` [Compound 082], the pIC50 is over 4.30.
